Laboratory results taken from patent US20090304692A1, “TRIAZINE COMPOUNDS AS PI3 KINASE AND MTOR INHIBITORS” (Wyeth, priority 2008, published 2009).
Values joined by “and” are separate entries in the source; they are usually repeats but may differ in a detail not shown here. Identical values can stand only once. Like-named read-outs stand apart in the source and are kept apart here. Blank lines part the entries; values can stand above or below the compound they belong to.

Tests used:
[1] = test system: human prostate LNCap tumor cell line; test: In vitro cell culture growth assay (MTS), LNCap; details: Homo sapiens, LNCaP, 72 h, read-out: IC50 LNCap
PI3K-γ = PI3K-γ (Homo sapiens, UniProt P48736); test: PI3K-gamma fluorescence polarization assay; details: read-out: IC50 PI3Kγ
Chain of PI3K-γ (P48736 whole entry, species assumed): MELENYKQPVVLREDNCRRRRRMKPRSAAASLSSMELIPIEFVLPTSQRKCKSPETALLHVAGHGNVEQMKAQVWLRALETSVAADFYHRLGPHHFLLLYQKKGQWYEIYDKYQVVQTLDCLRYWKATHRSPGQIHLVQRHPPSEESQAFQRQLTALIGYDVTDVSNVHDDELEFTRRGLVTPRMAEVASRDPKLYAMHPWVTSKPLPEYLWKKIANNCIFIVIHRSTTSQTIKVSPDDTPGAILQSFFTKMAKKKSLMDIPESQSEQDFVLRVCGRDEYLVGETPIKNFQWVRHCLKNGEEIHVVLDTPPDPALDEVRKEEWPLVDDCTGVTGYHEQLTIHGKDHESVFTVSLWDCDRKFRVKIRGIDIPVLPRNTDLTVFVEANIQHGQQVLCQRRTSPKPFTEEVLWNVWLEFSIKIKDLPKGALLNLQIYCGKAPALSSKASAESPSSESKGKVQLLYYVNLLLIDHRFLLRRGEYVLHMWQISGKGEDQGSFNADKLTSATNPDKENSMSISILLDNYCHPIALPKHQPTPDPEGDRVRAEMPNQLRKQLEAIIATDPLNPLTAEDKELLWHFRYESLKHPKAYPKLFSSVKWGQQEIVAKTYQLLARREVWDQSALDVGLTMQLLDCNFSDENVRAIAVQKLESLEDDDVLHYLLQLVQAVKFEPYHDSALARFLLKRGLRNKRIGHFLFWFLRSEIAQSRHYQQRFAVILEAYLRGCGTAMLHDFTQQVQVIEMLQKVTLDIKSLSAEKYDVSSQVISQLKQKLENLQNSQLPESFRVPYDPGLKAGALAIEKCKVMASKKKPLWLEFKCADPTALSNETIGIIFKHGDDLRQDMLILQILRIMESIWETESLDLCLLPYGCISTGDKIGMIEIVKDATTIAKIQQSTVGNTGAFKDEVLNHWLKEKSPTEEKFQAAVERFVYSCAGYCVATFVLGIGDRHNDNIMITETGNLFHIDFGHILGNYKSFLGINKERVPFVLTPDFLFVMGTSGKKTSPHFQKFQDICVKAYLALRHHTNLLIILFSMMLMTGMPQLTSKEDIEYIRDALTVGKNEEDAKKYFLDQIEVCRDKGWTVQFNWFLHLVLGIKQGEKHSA

Human mTOR (FLAG-TOR) = Human mTOR (FLAG-TOR) (Homo sapiens, UniProt P42345); test: mTOR kinase assay (DELFIA format, purified enzyme); format: biochemical; details: read-out: IC50 mTOR
Chain of Human mTOR (FLAG-TOR) (P42345 1360-2549 limits assumed): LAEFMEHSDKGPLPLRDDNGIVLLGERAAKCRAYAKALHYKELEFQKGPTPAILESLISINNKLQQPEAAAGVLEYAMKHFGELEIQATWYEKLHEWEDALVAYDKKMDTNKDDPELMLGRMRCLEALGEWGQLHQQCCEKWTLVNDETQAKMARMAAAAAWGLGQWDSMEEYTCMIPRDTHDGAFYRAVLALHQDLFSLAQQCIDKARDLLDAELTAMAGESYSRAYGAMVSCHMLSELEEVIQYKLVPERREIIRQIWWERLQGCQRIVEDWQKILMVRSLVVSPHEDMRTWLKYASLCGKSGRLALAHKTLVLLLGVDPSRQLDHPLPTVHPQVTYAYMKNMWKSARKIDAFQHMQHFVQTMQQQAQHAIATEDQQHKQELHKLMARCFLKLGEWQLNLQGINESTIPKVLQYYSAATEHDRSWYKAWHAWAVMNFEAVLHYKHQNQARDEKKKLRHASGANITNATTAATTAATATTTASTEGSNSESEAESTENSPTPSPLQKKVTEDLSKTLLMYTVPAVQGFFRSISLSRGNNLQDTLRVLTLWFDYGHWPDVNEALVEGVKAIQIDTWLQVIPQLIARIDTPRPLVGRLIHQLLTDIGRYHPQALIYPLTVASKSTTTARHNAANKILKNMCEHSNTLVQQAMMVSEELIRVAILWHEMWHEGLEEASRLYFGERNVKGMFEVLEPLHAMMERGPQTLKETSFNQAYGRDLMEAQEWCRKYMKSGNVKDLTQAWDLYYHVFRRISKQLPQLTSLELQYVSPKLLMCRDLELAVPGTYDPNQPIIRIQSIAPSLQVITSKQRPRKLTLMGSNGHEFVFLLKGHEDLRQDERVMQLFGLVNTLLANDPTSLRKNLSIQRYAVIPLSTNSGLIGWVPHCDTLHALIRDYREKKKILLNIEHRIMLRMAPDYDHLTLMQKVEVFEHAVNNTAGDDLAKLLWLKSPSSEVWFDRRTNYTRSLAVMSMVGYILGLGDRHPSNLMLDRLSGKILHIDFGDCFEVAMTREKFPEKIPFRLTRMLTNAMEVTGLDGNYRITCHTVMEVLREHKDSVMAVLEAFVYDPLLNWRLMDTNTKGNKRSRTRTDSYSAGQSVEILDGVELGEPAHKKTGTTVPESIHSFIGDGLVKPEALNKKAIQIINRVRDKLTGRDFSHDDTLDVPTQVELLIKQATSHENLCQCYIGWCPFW

PI3K-α = PI3K-α (Homo sapiens, UniProt P42336); test: PI3K-alpha fluorescence polarization assay; details: read-out: IC50 PI3Kα
Chain of PI3K-α (P42336 whole entry, species assumed): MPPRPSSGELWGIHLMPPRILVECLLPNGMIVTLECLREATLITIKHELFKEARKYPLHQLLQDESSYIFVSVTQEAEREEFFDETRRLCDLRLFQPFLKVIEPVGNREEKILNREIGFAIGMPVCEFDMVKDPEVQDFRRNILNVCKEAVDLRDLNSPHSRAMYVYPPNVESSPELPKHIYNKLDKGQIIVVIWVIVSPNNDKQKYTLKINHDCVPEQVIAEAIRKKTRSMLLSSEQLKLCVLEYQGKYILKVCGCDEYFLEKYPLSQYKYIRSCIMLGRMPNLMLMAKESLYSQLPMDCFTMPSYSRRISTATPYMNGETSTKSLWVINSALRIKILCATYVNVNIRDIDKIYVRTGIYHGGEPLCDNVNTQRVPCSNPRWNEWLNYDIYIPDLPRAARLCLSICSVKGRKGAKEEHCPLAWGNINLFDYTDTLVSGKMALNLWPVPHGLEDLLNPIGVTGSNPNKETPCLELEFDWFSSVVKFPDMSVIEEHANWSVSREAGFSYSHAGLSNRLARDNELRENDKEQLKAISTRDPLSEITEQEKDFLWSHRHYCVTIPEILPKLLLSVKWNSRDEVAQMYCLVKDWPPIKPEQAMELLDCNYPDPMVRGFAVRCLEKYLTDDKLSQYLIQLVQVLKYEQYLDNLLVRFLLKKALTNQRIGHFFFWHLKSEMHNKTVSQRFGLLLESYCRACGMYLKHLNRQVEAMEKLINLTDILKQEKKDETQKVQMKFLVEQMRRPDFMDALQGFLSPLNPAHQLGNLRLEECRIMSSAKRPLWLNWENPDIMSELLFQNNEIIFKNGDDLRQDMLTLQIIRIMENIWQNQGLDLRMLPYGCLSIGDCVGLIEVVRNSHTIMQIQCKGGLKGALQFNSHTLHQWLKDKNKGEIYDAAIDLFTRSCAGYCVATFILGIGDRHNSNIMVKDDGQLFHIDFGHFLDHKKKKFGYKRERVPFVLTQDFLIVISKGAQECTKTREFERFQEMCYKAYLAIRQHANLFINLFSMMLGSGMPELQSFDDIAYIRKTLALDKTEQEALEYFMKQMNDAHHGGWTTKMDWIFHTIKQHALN
Chain of PI3K-α (P27986 whole entry partner, species assumed): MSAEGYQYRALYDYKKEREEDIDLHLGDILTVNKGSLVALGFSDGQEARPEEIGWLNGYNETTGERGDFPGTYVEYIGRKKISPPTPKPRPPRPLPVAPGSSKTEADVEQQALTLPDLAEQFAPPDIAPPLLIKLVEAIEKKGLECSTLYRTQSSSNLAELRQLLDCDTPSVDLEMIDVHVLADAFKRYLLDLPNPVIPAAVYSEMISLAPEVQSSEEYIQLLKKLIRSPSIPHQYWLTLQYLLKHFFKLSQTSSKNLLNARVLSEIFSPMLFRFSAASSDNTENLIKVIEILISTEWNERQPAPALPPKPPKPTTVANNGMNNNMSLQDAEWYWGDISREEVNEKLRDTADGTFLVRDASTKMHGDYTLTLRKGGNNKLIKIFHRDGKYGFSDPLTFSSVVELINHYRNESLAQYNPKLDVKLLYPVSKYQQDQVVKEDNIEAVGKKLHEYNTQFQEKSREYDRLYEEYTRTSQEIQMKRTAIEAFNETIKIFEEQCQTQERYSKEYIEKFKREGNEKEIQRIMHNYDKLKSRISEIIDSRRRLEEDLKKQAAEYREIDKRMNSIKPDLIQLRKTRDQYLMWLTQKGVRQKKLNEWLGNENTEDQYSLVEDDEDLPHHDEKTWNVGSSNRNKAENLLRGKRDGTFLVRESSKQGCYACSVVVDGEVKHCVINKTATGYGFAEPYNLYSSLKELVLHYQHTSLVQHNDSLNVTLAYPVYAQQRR

IC50 [1]: 0.012 µM
IC50 (PI3K-γ): 2.78 µM
IC50 (Human mTOR (FLAG-TOR)): 0.0026 µM
IC50 (PI3K-α): 0.279 µM
Compound: CC(C)Nc1nc(-c2ccc(NC(=O)Nc3ccc(C(=O)NN(C)C)cc3)cc2)nc(N2CC3CCC(C2)O3)n1 [Example 218, 1-{4-[(2,2-dimethylhydrazino)carbonyl]phenyl}-3-(4-{4-[(1-methylethyl)amino]-6-(8-oxa-3-azabicyclo[3.2.1]oct-3-yl)-1,3,5-triazin-2-yl}phenyl)urea]

IC50 [1]: 3.5 µM
IC50 (PI3K-γ): 5 µM
IC50 (Human mTOR (FLAG-TOR)): 0.003 µM
IC50 (PI3K-α): 0.308 µM
Compound: O=C(Nc1ccc(-c2nc(OCCC3CCNCC3)nc(N3CC4CCC(C3)O4)n2)cc1)Nc1cccnc1 [Example 182, 1-{4-[4-(8-oxa-3-azabicyclo[3.2.1]oct-3-yl)-6-(2-piperidin-4-ylethoxy)-1,3,5-triazin-2-yl]phenyl}-3-pyridin-3-ylurea]

IC50 [1]: 0.32 µM
IC50 (PI3K-γ): 4.15 µM
IC50 (Human mTOR (FLAG-TOR)): 0.019 µM
IC50 (PI3K-α): 0.586 µM
Compound: CN1CCN(c2nc(-c3ccc(NC(=O)Nc4ccncc4)cc3)nc(N3CC4CCC(C3)O4)n2)CC1 [Example 108, 1-{4-[4-(4-methylpiperazin-1-yl)-6-(8-oxa-3-azabicyclo[3.2.1]oct-3-yl)-1,3,5-triazin-2-yl]phenyl}-3-pyridin-4-ylurea]

IC50 [1]: 0.045 µM
IC50 (PI3K-γ): 3.52 µM
IC50 (Human mTOR (FLAG-TOR)): 0.00049 µM
IC50 (PI3K-α): 0.142 µM
Compound: O=C(Nc1ccncc1)Nc1ccc(-c2nc(N3CC4CCC(C3)O4)nc(N3CC4CCC(C3)O4)n2)cc1 [Example 31, 1-[4-(4,6-di-8-oxa-3-azabicyclo[3.2.1]oct-3-yl-1,3,5-triazin-2-yl)phenyl]-3-pyridin-4-ylurea]

IC50 [1]: 0.03 µM
IC50 (PI3K-γ): 2.53 µM
IC50 (Human mTOR (FLAG-TOR)): 0.00031 µM
IC50 (PI3K-α): 0.158 µM
Compound: CC(C)(CO)Nc1nc(-c2ccc(NC(=O)Nc3cccnc3)cc2)nc(N2CC3CCC(C2)O3)n1 [Example 261, 1-(4-{4-[(2-hydroxy-1,1-dimethylethyl)amino]-6-(8-oxa-3-azabicyclo[3.2.1]oct-3-yl)-1,3,5-triazin-2-yl}phenyl)-3-pyridin-3-ylurea]

IC50 [1]: 0.12 µM
IC50 (PI3K-γ): 4.28 µM
IC50 (Human mTOR (FLAG-TOR)): 0.0027 µM
IC50 (PI3K-α): 0.214 µM
Compound: CC(C)Nc1nc(-c2ccc(NC(=O)Nc3ccc(CO)cc3)cc2)nc(N2CC3CCC(C2)O3)n1 [Example 221, 1-[4-(hydroxymethyl)phenyl]-3-(4-{4-[(1-methylethyl)amino]-6-(8-oxa-3-azabicyclo[3.2.1]oct-3-yl)-1,3,5-triazin-2-yl}phenyl)urea]

IC50 [1]: 1 µM
IC50 (PI3K-γ): 6.83 µM
IC50 (Human mTOR (FLAG-TOR)): 0.006 µM
IC50 (PI3K-α): 1.93 µM
Compound: CN1CCN(c2ccc(NC(=O)Nc3ccc(-c4nc(-c5ccc(NC(=O)Nc6ccc(N7CCN(C)CC7)cc6)cc5)nc(N5CC6CCC(C5)O6)n4)cc3)cc2)CC1 [Example 147, N′,N′″-{[6-(8-oxa-3-azabicyclo[3.2.1]oct-3-yl)-1,3,5-triazine-2,4-diyl]di-4,1-phenylene}bis{1-[4-(4-methylpiperazin-1-yl)phenyl]urea}]

IC50 [1]: 0.22 µM
IC50 (PI3K-γ): 1.45 µM
IC50 (PI3K-γ; listed as 335): 0.144 µM
IC50 (Human mTOR (FLAG-TOR)): 0.0044 µM and 0.004 µM
IC50 (PI3K-α): 0.08 µM
IC50 (PI3K-α; listed as 335): 0.081 µM
Compound: CN1CCN(c2ccc(Nc3nc(-c4ccc(NC(=O)Nc5ccccc5)cc4)nc(N4CC5CCC(C4)O5)n3)cc2)CC1 [Example 319, 1-{4-[4-{[4-(4-methylpiperazin-1-yl)phenyl]amino}-6-(8-oxa-3-azabicyclo[3.2.1]oct-3-yl)-1,3,5-triazin-2-yl]phenyl}-3-phenylurea]

IC50 [1]: 1.9 µM
IC50 (PI3K-γ): 2.96 µM
IC50 (Human mTOR (FLAG-TOR)): 0.0735 µM
IC50 (PI3K-α): 1.46 µM
Compound: O=C(Nc1ccncc1)Nc1ccc(-c2nc(N3CCN(Cc4ccccc4)CC3)nc(N3CC4CCC(C3)O4)n2)cc1 [Example 109, 1-{4-[4-(4-benzylpiperazin-1-yl)-6-(8-oxa-3-azabicyclo[3.2.1]oct-3-yl)-1,3,5-triazin-2-yl]phenyl}-3-pyridin-4-ylurea]

IC50 [1]: 0.4 µM
IC50 (PI3K-γ): 5.9 µM
IC50 (Human mTOR (FLAG-TOR)): 0.0063 µM
IC50 (PI3K-α): 0.394 µM
Compound: O=C(NCCF)Nc1ccc(-c2nc(Nc3ccc(N4CCNCC4)cc3)nc(N3CC4CCC(C3)O4)n2)cc1 [Example 327, 1-(2-fluoroethyl)-3-(4-{4-(8-oxa-3-azabicyclo[3.2.1]oct-3-yl)-6-[(4-piperazin-1-ylphenyl)amino]-1,3,5-triazin-2-yl}phenyl)urea]

IC50 [1]: 0.013 µM
IC50 (PI3K-γ): 3.23 µM
IC50 (Human mTOR (FLAG-TOR)): 0.0032 µM
IC50 (PI3K-α): 0.253 µM
Compound: CC(C)Nc1nc(-c2ccc(NC(=O)Nc3ccc(N4CCN(C)CC4)cc3)cc2)nc(N2CC3CCC(C2)O3)n1 [Example 217, 1-(4-{4-[(1-methylethyl)amino]-6-(8-oxa-3-azabicyclo[3.2.1]oct-3-yl)-1,3,5-triazin-2-yl}phenyl)-3-[4-(4-methylpiperazin-1-yl)phenyl]urea]

IC50 [1]: 1 µM
IC50 (PI3K-γ): 3.73 µM
IC50 (Human mTOR (FLAG-TOR)): 0.022 µM
IC50 (PI3K-α): 1.12 µM
Compound: COCC(COC)Oc1nc(-c2ccc(NC(=O)OCCO)cc2)nc(N2CC3CCC(C2)O3)n1 [Example 176, 2-hydroxyethyl (4-{4-[2-methoxy-1-(methoxymethyl)ethoxy]-6-(8-oxa-3-azabicyclo[3.2.1]oct-3-yl)-1,3,5-triazin-2-yl}phenyl)carbamate]

IC50 [1]: 0.016 µM
IC50 (PI3K-γ): 0.484 µM
IC50 (Human mTOR (FLAG-TOR)): 0.0017 µM
IC50 (PI3K-α): 0.402 µM
Compound: C[C@@H]1COCCN1c1nc(-c2ccc(NC(=O)Nc3ccc(N4CCC(N(C)C)CC4)cc3)cc2)nc(C2CCOCC2)n1 [Example 430, (R)-1-(4-(4-(dimethylamino)piperidin-1-yl)phenyl)-3-(4-(4-(3-methylmorpholino)-6-(tetrahydro-2H-pyran-4-yl)-1,3,5-triazin-2-yl)phenyl)urea]

Continued, compound first:

Compound: O=C(Nc1ccc(-c2nc(C3CCOCC3)nc(N3C4CCC3COC4)n2)cc1)Nc1ccc(N2CCN(C3CC3)CC2)cc1 [Example 436, 1-(4-(4-(3-oxa-8-azabicyclo[3.2.1]octan-8-yl)-6-(tetrahydro-2H-pyran-4-yl)-1,3,5-triazin-2-yl)phenyl)-3-(4-(4-cyclopropylpiperazin-1-yl)phenyl)urea]
IC50 [1]: 0.01 µM
IC50 (PI3K-γ): 3.12 µM
IC50 (Human mTOR (FLAG-TOR)): 0.00062 µM
IC50 (PI3K-α): 0.749 µM

Compound: C[C@@H]1COCCN1c1nc(-c2ccc(NC(=O)Nc3ccc(CN4CCCC4)cc3)cc2)nc(N2CCOC[C@H]2C)n1 [Example 453, 1-(4-(4,6-bis((R)-3-methylmorpholino)-1,3,5-triazin-2-yl)phenyl)-3-(4-(pyrrolidin-1-ylmethyl)phenyl)urea]
IC50 [1]: 0.03 µM
IC50 (PI3K-γ): 4.27 µM
IC50 (Human mTOR (FLAG-TOR)): 0.0033 µM
IC50 (PI3K-α): 0.659 µM

Compound: CC(C)N1CCN(C(=O)c2ccc(NC(=O)Nc3ccc(-c4nc(N5CCOC[C@H]5C)nc(N5CCOC[C@H]5C)n4)cc3)cc2)CC1 [Example 451, 1-(4-(4,6-bis((R)-3-methylmorpholino)-1,3,5-triazin-2-yl)phenyl)-3-(4-(4-isopropylpiperazine-1-carbonyl)phenyl)urea]
IC50 [1]: < 0.0008 µM
IC50 (PI3K-γ): 0.702 µM
IC50 (Human mTOR (FLAG-TOR)): 0.0014 µM
IC50 (PI3K-α): 0.085 µM

Compound: CN(C)Cc1ccc(NC(=O)Nc2ccc(-c3nc(C4CCOCC4)nc(N4C5CCC4COC5)n3)cc2)cc1 [Example 409, 1-(4-(4-(3-oxa-8-azabicyclo[3.2.1]octan-8-yl)-6-(tetrahydro-2H-pyran-4-yl)-1,3,5-triazin-2-yl)phenyl)-3-(4-((dimethylamino)methyl)phenyl)urea]
IC50 [1]: 0.05 µM
IC50 (PI3K-γ): 4.49 µM
IC50 (Human mTOR (FLAG-TOR)): 0.0015 µM
IC50 (PI3K-α): 0.856 µM

Compound: CC(C)N(C)c1nc(-c2ccc(NC(=O)Nc3ccc(CN(C)C)cc3)cc2)nc(N2C3CCC2COC3)n1 [Example 390, 1-(4-(4-(3-oxa-8-azabicyclo[3.2.1]octan-8-yl)-6-(isopropyl(methyl)amino)-1,3,5-triazin-2-yl)phenyl)-3-(4-((dimethylamino)methyl)phenyl)urea]
IC50 [1]: 0.65 µM
IC50 (PI3K-γ): 2.35 µM
IC50 (Human mTOR (FLAG-TOR)): 0.012 µM
IC50 (PI3K-α): 2.47 µM

Compound: CC(C)Nc1nc(-c2ccc(NC(=O)Nc3ccc(CN4CCN(C)CC4)cc3)cc2)nc(N2C3CCC2COC3)n1 [Example 379, 1-(4-(4-(3-oxa-8-azabicyclo[3.2.1]octan-8-yl)-6-(isopropylamino)-1,3,5-triazin-2-yl)phenyl)-3-(4-((4-methylpiperazin-1-yl)methyl)phenyl)urea]
IC50 [1]: 0.14 µM
IC50 (PI3K-γ): 5.25 µM
IC50 (Human mTOR (FLAG-TOR)): 0.0073 µM
IC50 (PI3K-α): 4.75 µM

Compound: C[C@@H]1COCCN1c1nc(-c2ccc(NC(=O)Nc3ccncc3)cc2)nc(N2C3CCC2COC3)n1 [Example 416, 1-(4-(4-(3-oxa-8-azabicyclo[3.2.1]octan-8-yl)-6-((R)-3-methylmorpholino)-1,3,5-triazin-2-yl)phenyl)-3-(pyridin-4-yl)urea]
IC50 [1]: 0.012 µM
IC50 (PI3K-γ): 2.5 µM
IC50 (Human mTOR (FLAG-TOR)): 0.00055 µM
IC50 (PI3K-α): 0.446 µM

Compound: O=C(Nc1ccncc1)Nc1ccc(-c2nc(C3=CCOCC3)nc(N3C4CCC3COC4)n2)cc1 [Example 404, 1-(4-(4-(3-oxa-8-azabicyclo[3.2.1]octan-8-yl)-6-(3,6-dihydro-2H-pyran-4-yl)-1,3,5-triazin-2-yl)phenyl)-3-(pyridin-4-yl)urea]
IC50 [1]: 0.06 µM
IC50 (PI3K-γ): 0.433 µM
IC50 (Human mTOR (FLAG-TOR)): 0.00069 µM
IC50 (PI3K-α): 0.063 µM

Compound: CN(C)Cc1ccc(NC(=O)Nc2ccc(-c3nc(N4CCSCC4)nc(N4C5CCC4COC5)n3)cc2)cc1 [Example 395, 1-(4-(4-(3-oxa-8-azabicyclo[3.2.1]octan-8-yl)-6-thiomorpholino-1,3,5-triazin-2-yl)phenyl)-3-(4-((dimethylamino)methyl)phenyl)urea]
IC50 [1]: 0.59 µM
IC50 (PI3K-γ): 2.22 µM
IC50 (Human mTOR (FLAG-TOR)): 0.014 µM
IC50 (PI3K-α): 0.584 µM

Compound: CN(C)CCN(C)C(=O)c1ccc(NC(=O)Nc2ccc(-c3nc(C4CCOCC4)nc(N4C5CCC4COC5)n3)cc2)cc1 [Example 459, 4-(3-(4-(4-(3-oxa-8-azabicyclo[3.2.1]octan-8-yl)-6-(tetrahydro-2H-pyran-4-yl)-1,3,5-triazin-2-yl)phenyl)ureido)-N-(2-(dimethylamino)ethyl)-N-methylbenzamide]
IC50 [1]: < 0.0008 µM
IC50 (PI3K-γ): 0.483 µM
IC50 (Human mTOR (FLAG-TOR)): 0.0003 µM
IC50 (PI3K-α): 0.026 µM
